Assay results published in patent US6399599B1, “Substituted 2-oxo-1,4-diazacycloalkanes” (Novartis AG, priority 1999, dated 2002).

Test system: allergic contact dermatitis (oxazolone, elicitation phase)
Test: Allergic contact dermatitis (ACD), oxazolone
Format: in vivo
Settings: female NMRI mice, 24 h after challenge
Excerpt: ii) Allergic Contact Dermatitis (ACD)
Groups of 8 female NMRI mice are sensitized on the shaved abdomen with 50 —l of oxazolone (Sigma, 2% in acetone) and challenged with 10 —l of 0.2 or 2.0% oxazolone on the inner surface of the right ear 7 days later. The low concentration of oxazolone for induction of the elicitation phase is used for testing compounds on […] whereas the high concentration is applied for […] testing. The unchallenged left ears serve as normal controls and dermatitis is evaluated from the individual differences in pinnal weight, which is taken as a measure of increase in inflammatory swelling 24 h after the challenge. Dermatitis is evaluated in test- and for comparison in control groups. The test groups are treated with the test compounds either orally (twice, 2 h and immediately before challenge), subcutaneously (immediately before challenge) or topically (30 min after challenge at the site of elicitation of the ACD); the controls are treated similarly with the vehicles alone. […] The data of the test-and the vehicle-treated control groups are statistically analysed by ANOVA followed by Dunnet T-test (normal distribution or data) or by H and U-test, respectively. […]

## C[C@@H]1CCN([C@H](Cc2cccc3ccccc23)C(N)=O)C(=O)[C@H](c2ccccc2)N1C(=O)Cc1ccc2ncccc2c1 [Example 3, (R)-2-[(3S,5R)-5Methyl-2-oxo-3-phenyl-4-(quinolin-6-yl-acetyl)-[1,4]diazepan-1-yl]-3-(naphthalen-1-yl)-propionamide]
Applied topically at a dose of 10 mM
  inhibiting effect in allergic contact dermatitis (pinnal weight): 50%
p.o. at a dose of 2×3 mg/kg
  inhibiting effect in allergic contact dermatitis (pinnal weight): 40%
